Data: BindingDB's records for doi:10.1016/j.bmcl.2015.11.049 (Genomics Institute of The Novartis Research Foundation, 2016)

How the values were obtained:
[1] = Inhibition of […] (unknown origin) expressed in mouse BaF3 cells assessed as reduction in cell proliferation incubated for 2 to 3 days by Bright-Glo luciferase assay
[2] = Inhibition of […] (unknown origin) expressed in human KARPAS-299 cells assessed as reduction in cell growth
[3] = Inhibition of PDK1 (unknown origin)
[4] = Inhibition of Tel fused InsR (unknown origin) expressed in mouse BaF3 cells assessed as reduction in cell proliferation incubated for 2 to 3 days by Bright-Glo luciferase assay

SMILES	IC50 [1] [µM]	IC50 [2] [µM]	IC50 [3] [µM]	IC50 [4] [µM]
Cc1cc(Nc2nc(Nc3ccccc3S(=O)(=O)C(C)C)c3cc[nH]c3n2)c(OC(C)C)cc1C1CCNCC1	0.047			
Cc1cc(Nc2cc(Nc3ccccc3S(=O)(=O)C(C)C)c3cc[nH]c3n2)c(OC(C)C)cc1C1CCN(C)CC1	1.43	7.31		
Cc1cc(Nc2nc(Nc3ccccc3S(=O)(=O)C(C)C)c3cccnc3n2)c(OC(C)C)cc1C1CCNCC1	3.17			
Cc1cc2c(Nc3ccccc3S(=O)(=O)C(C)C)nc(Nc3cc(C)c(C4CCN(C)CC4)cc3OC(C)C)nc2[nH]1	1.3			
Cc1cc(Nc2nc(Nc3ccccc3S(=O)(=O)C(C)C)c3cn[nH]c3n2)c(OC(C)C)cc1C1CCNCC1	0.033			
Cc1cc(Nc2nc(Nc3ccccc3S(=O)(=O)C(C)C)c3c(N)n[nH]c3n2)c(OC(C)C)cc1C1CCN(C)CC1	0.15			
Cc1cc(Nc2nc(Nc3ccccc3S(=O)(=O)C(C)C)c3c(C)[nH]nc3n2)c(OC(C)C)cc1C1CCN(C)CC1 [US8592432, 34]	0.02	0.026	> 10	0.429
Cc1cc(Nc2nc(Nc3ccccc3S(=O)(=O)C(C)C)c3ccccc3n2)c(OC(C)C)cc1C1CCN(C)CC1	1.08			
Cc1cc(Nc2nc(Nc3ccccc3S(=O)(=O)C(C)C)c3cn[nH]c3n2)c(OC(C)C)cc1C1CCN(C)CC1	0.013			
